For experiment [1], the target named is T1, Lanosterol 14-alpha demethylase (Candida albicans (strain SC5314 / ATCC MYA-2876) (Yeast), UniProt P10613). The experiment is described as follows: Inhibition of Candida albicans lanosterol 14-alpha demethylase assessed as reduction of ergosterol biosynthesis at 100 ug/ml after 18 hrs by UV spectroscopy analysis.
Experiment [2] has as its system Candida albicans. The experiment is described as follows: Antifungal activity against Candida albicans ATCC 10231 at 50 ug/ml after 48 hrs by cup plate method. To be noted: ATCC 10231, 48 h. The class given is functional.
Experiment [3] deals with T1, Lanosterol 14-alpha demethylase. Put plainly: Inhibition of Candida albicans lanosterol 14-alpha demethylase assessed as reduction of ergosterol biosynthesis at 10 ug/ml after 18 hrs by UV spectroscopy analysis.
For experiment [4], the system named is Candida albicans. Put plainly: Antifungal activity against Candida albicans ATCC 10231 at 10 ug/ml after 48 hrs by cup plate method. The class given is functional. To be noted: ATCC 10231, 48 h.
In experiment [5] the test system is Candida albicans. The experiment is described as follows: Antifungal activity against Candida albicans ATCC 10231 at 100 ug/ml after 48 hrs by cup plate method. The class given is functional. To be noted: ATCC 10231, 48 h.
Experiment [6] has as its target T1, Lanosterol 14-alpha demethylase. The experiment is described as follows: Inhibition of Candida albicans lanosterol 14-alpha demethylase assessed as reduction of ergosterol biosynthesis at 50 ug/ml after 18 hrs by UV spectroscopy analysis.

The structures appear in SMILES notation.

The inhibition is the drop in the measured response relative to a control, in per cent.

T1 sequence (P10613 whole entry): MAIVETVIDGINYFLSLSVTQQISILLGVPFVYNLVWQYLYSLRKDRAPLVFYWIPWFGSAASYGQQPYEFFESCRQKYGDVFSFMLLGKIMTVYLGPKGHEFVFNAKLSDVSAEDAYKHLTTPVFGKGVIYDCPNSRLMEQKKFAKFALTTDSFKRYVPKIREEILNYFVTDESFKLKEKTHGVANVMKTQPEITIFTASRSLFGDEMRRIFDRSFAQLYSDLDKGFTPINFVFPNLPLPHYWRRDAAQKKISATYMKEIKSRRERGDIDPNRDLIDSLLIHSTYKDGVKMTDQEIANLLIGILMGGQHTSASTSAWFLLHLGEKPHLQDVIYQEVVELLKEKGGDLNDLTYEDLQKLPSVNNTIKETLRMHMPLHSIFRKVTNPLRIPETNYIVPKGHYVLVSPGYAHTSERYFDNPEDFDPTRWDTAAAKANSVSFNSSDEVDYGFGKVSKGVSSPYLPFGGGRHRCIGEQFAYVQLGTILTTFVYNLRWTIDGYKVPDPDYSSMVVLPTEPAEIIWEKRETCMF

Regarding `Cc1ccccc1NC(=O)c1ccc2[nH]nnc2c1`, the results for the inhibition at 100 µg/mL in experiment [1] and in experiment [5] were 42.5% and 58.4%, respectively. In addition, the values for the inhibition at 50 µg/mL in experiment [2] and in experiment [6] were 23.7% and 35.7%, respectively. Besides, the values for the inhibition at 10 µg/mL in experiment [3] and in experiment [4] were 12.6% and 4.16%, respectively.
As to `Cc1ccccc1NCn1nnc2ccccc21`, the inhibition at 100 µg/mL is 31.3% in experiment [1] and 50.2% in experiment [5]. In addition, the inhibition at 50 µg/mL in experiment [2] was found to be 4.16%; in experiment [6], 29.4%. The inhibition at 10 µg/mL is 11.6% in experiment [3] and 0% in experiment [4].
For the compound `CCCCNC(=O)c1ccc2[nH]nnc2c1`, the results for the inhibition at 100 µg/mL in experiment [1] and in experiment [5] were 38.1% and 54.3%, respectively. Also, the inhibition at 50 µg/mL turned out to be 27.4% in experiment [2] and 22.7% in experiment [6]. In addition, the figures for the inhibition at 10 µg/mL in experiment [3] and in experiment [4] were 7.91% and 4.16%, respectively.
In the case of `Cc1ccccc1NCc1ccc2[nH]nnc2c1`, the inhibition at 100 µg/mL in experiment [1] is 65.8%; in experiment [5] it was 67.7%. For the same compound, the inhibition at 50 µg/mL is 34.2% in experiment [2] and 65.8% in experiment [6]. The values for the inhibition at 10 µg/mL in experiment [3] and in experiment [4] were 49.9% and 0%, respectively.
Take `c1ccc(CNCc2ccc3[nH]nnc3c2)cc1`: the inhibition at 100 µg/mL in experiment [1] was 66%; in experiment [5], 67.7%. The inhibition at 50 µg/mL in experiment [2] is 27.4%; in experiment [6], 48.5%. For the same compound, the inhibition at 10 µg/mL in experiment [3] was 46.5%; in experiment [4], 12.5%.
With `Cc1ccccc1OCc1ccc2[nH]nnc2c1`, the results for the inhibition at 100 µg/mL in experiment [1] and in experiment [5] were 54.4% and 66.1%, respectively. For the same compound, the inhibition at 50 µg/mL in experiment [2] was 36.4%; in experiment [6], 54%. Besides, the figures for the inhibition at 10 µg/mL in experiment [3] and in experiment [4] were 50.5% and 0%, respectively.
As for `O=C(NCc1ccccc1)c1ccc2[nH]nnc2c1`, the inhibition at 100 µg/mL in experiment [1] stood at 41.3%; in experiment [5], 54.1%. Also, the inhibition at 50 µg/mL in experiment [2] is 28.5%; in experiment [6], 33.1%. Besides, the inhibition at 10 µg/mL worked out at 15.9% in experiment [3] and 4.16% in experiment [4].
Take `CCCCNCc1ccc2[nH]nnc2c1`: the inhibition at 100 µg/mL in experiment [1] turned out to be 47.8%; in experiment [5] it was 64.3%. Also, the inhibition at 50 µg/mL in experiment [2] was determined as 30%; in experiment [6], 45.5%. The inhibition at 10 µg/mL came to 1.55% in experiment [3] and 12.5% in experiment [4].
As to `OC(Cn1cncn1)(Cn1cncn1)c1ccc(F)cc1F` [FLUCONAZOLE], the values for the inhibition at 100 µg/mL in experiment [1] and in experiment [5] were 51.2% and 65.5%, respectively. In addition, the inhibition at 50 µg/mL was found to be 30% in experiment [2] and 47.7% in experiment [6]. Further, the inhibition at 10 µg/mL in experiment [3] turned out to be 45.5%; in experiment [4], 12.5%.
